Laboratory results as given in US10253010B2, “C-glycoside derivative” (SIHUAN PHARMACEUTICAL HOLDINGS GROUP LTD., priority 2011, dated 2019).
Like-named read-outs stand apart in the source and are kept apart here.

Key:
[1] = Rat in vivo pharmacokinetic assay (IV and PO); parameters: species or system SD rats; settings: plasma, male SD rat; for half-life: read-out: T1/2 (half-life) (converted); for bioavailability: PO 5 mg/kg versus IV 2 mg/kg, read-out: F % (absolute bioavailability)
Protocol: Rat In Vivo Pharmacokinetic Assay for the Present Compounds
Assay animals: 6-8 weeks aged male SD rats (purchased from Vital River Laboratories), 6 rats per compound, weighing 220-250 g.
Dissolved in an appropriate solvent (5% DMSO+95% (6% HP-β-CD solution)).
Administration: See Table 2
Blood collection: each of about 100 μL whole blood were collected at 0 h, 0.083 h, 0.25 h, 0.5 h, 1 h, 2 h, 4 h, 6 h, 8 h and 24 h. The collected blood samples were centrifuged at 4° C. at 8000 rpm in a low temperature high-speed centrifuge (5415R, Eppendorf) for 6 mins to separate the blood plasm. The separated plasm was preserved at −80° C. in a refrigerator.
20 μL of the plasm was carefully taken out, to which was added 200 μL acetonitrile solution (containing internal standard KBP-1204 50 ng/ml). The plasm was subjected to a vortex at 1500 rpm for 3 mins, and then centrifuged at 12000 rpm for 5 mins. The supernatant was taken and was analyzed with LC-MS/MS (API4000, Applied Biosystems). Equation Absolute bioavailability F %=[AUC]INF(PO)*Dose(IV)/[AUC]INF(IV)*Dose(PO)

[2] = Urine glucose assay in normal rats; assay type: in vivo, Sprague-Dawley rats; settings: normal male SD rats, 10 mg/Kg oral, glucose 5 g/kg, 24 h urine; for Urine glucose mass: standardized to 200 g body weight
Protocol: SPF-grade male Sprague-Dawley rats, 6-weeks aged, were used in this urine glucose assay. After the rats were fasted for 15 h, the rats were divided randomly into a blank control group, a model group, a positive drug group and a test drug group according to their body weights. The rats were put into metabolic cages where water was available but food was unavailable. The urines in this 24 hours were collected. Then, the drugs were orally administered (10 mg/Kg) and then the glucose was fed (5 g/kg) to the animals. Then the animals were put into metabolic cages. The rats were supplemented with food one hour after the drug administration and the glucose feeding, and then could freely contact the diets. The urines in this 24 hours were collected and recorded. The collected urines were centrifuged at 3000 rpm for 15 mins. The residues were removed. The supernatants were taken and the urine glucose contents therein were measured.
The urine glucose contents were standardized based on the body weight of 200 g. The data were expressed in average±standard deviation. The resulting values were analyzed with one-way ANOVA, and the comparisons between groups were conducted with one-way ANOVA and Dunnett test, where p<0.05 was considered to have a statistical significance.

[3] = target: T1, human SGLT1 (Homo sapiens, UniProt P13866); assay: Inhibition of sodium dependent [14C]-AMG uptake in CHO cells stably expressing human SGLT1; assay type: cell-based; settings: CHO cells expressing human SGLT1, [14C]-AMG uptake
T1 sequence (P13866 1-664): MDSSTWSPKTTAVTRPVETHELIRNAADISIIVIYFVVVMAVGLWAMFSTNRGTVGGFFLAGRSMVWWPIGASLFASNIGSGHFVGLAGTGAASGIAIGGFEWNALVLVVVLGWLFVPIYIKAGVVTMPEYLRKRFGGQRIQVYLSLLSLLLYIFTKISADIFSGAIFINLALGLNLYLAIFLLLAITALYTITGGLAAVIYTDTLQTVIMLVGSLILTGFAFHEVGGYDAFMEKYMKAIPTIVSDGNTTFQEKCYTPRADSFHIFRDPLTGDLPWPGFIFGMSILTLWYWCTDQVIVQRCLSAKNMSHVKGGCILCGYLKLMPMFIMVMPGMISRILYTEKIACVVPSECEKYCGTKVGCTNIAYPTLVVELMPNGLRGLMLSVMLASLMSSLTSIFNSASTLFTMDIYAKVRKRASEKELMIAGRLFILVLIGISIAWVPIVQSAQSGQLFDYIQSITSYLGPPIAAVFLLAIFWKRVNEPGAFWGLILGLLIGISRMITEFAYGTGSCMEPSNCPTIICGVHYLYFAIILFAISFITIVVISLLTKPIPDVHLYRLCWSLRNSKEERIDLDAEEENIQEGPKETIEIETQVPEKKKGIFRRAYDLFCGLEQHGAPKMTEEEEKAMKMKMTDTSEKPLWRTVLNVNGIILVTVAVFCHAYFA
Protocol: (§1) In the in vitro evaluation method according to the present invention, the human SGLT2 and SGLT1 sequences were transfected to Chinese hamster ovary cells to express stably. By measuring inhibition of the sodium dependent adsorption of [^14C]-labeled […]-D-glucopyranoside (AMG) into the cells, the half-inhibition concentration IC50 was determined.
(§2) Buffer A (KRH-Na+): 120 mM NaCl, 4.7 mM KCl, 1.2 mM MgCl2, 2.2 mM CaCl2, 10 mM HEPES (PH 7.4 with 1 mM Tris).
(§3) Buffer A− (KRH-NMG): 120 mM NMG, 4.7 mM KCl, 1.2 mM MgCl2, 2.2 mM CaCl2, 10 mM HEPES (PH 7.4 with 1 mM Tris).
(§4) Buffer D: 120 mM NaCl, 4.7 mM KCl, 1.2 mM MgCl2, 2.2 mM CaCl2, 10 mM HEPES, 0.5 mM phlorizin (PH 7.4 with 1 mM Tris).
(§5) Assay method: Human SGLT2 and SGLT1 sequences were stably expressed in the CHO cells. The cell culture was conducted in a 96-well plate for 12 hr. The plate was washed with KRH-Na+ (Buffer A) or KRH-NMG (Buffer A−) buffering solution for three times, 200 μL/well. Then the plate was washed with a buffering solution containing Buffer A or Buffer A− plus [^14C]-AMG (10 μCi/mL), 100 μL/well. The cell culture was conducted at 37° C. for 1 h. Then, 100 μL of ice pre-cooled buffering solution (Buffer D) was added to terminate the assay. The plate was washed for 5 times. Then 100 mM NaOH solution was added, 20 μL/well, and the centrifugation at 600 rpm was conducted for 5 mins. Then Microscint 40 solution was added, 80 μl/well, and the centrifugation at 600 rpm was conducted for 5 mins. Finally, the radioactivity of [^14C]-AMG was detected with MicroBeta Trilux (purchased from PerkinElmer Co. Ltd.) according to the scintillation counting method, and the half-inhibition concentration IC50 was calculated.
(§6) The above assays were entrusted to Shanghai ChemPartner Co. Ltd.

[4] = target: T2, human SGLT2 (Homo sapiens, UniProt P31639); assay: Inhibition of sodium dependent [14C]-AMG uptake in CHO cells stably expressing human SGLT2; assay type: cell-based; settings: for IC50: CHO cells expressing human SGLT2, [14C]-AMG uptake; for Selectivity: SGLT1 IC50 versus SGLT2 IC50
T2 sequence (P31639 1-672): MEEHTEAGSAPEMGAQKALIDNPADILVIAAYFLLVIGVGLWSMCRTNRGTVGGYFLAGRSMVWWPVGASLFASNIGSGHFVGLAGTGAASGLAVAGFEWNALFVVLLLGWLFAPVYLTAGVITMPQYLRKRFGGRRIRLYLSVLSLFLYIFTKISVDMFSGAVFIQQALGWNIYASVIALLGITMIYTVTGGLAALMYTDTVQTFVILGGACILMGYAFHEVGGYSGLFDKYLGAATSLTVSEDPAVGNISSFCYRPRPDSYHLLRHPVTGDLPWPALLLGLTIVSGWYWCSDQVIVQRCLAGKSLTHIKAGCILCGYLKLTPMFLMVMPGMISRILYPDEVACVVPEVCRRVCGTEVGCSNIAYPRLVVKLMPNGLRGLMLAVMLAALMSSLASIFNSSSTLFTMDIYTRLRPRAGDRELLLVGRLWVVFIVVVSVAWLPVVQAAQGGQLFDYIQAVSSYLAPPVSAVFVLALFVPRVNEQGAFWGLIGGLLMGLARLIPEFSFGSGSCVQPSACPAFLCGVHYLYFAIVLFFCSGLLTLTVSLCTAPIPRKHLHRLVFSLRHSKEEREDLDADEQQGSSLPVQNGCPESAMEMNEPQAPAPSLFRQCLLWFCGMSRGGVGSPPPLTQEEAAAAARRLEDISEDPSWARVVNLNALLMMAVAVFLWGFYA
Protocol: as §1, §2, §3, §4, §5, §6

AUC(0-t) ([1]; IV, 2 mg/kg) [ng·h/mL]	AUC(0-inf) ([1]; IV, 2 mg/kg) [ng·h/mL]	half-life ([1]; IV, 2 mg/kg) [min]	bioavailability [1] [%]	AUC(0-t) ([1]; PO, 5 mg/kg) [ng·h/mL]	AUC(0-inf) ([1]; PO, 5 mg/kg) [ng·h/mL]	half-life ([1]; PO, 5 mg/kg) [min]	IC50 [3] [nM]	IC50 [4] [nM]	Selectivity [4]	SMILES	Urine volume [2] [mL]	Urine glucose mass [2] [mg/200 g]
1090 ± 138	1100 ± 142	42 ± 4.2	16.5	426 ± 116	457 ± 114	79.8 ± 19.8				OC[C@H]1O[C@@H](c2ccc(Cl)c(Cc3ccc(O[C@H]4CCOC4)cc3)c2)[C@H](O)[C@@H](O)[C@@H]1O [BI-10773, reference compound]	16.63	866.67
12400 ± 732	13500 ± 451	409 ± 44.4	87.2	26300 ± 1790	29500 ± 2720	440 ± 57.6	2400			OC[C@H]1OC(c2ccc(Cl)c(Cc3ccc(OC4CC5CC5C4)cc3)c2)[C@H](O)[C@@H](O)[C@@H]1O (some centres unmarked) [Compound 4]	18.50	1197.79
972 ± 164	984 ± 167	52.8 ± 12.6	18.9 ± 6.52	430 ± 166	464 ± 160	106 ± 28.2	1890	3.16	596	OC[C@H]1OC(c2ccc(Cl)c(Cc3ccc(OC4C5COCC54)cc3)c2)[C@H](O)[C@@H](O)[C@@H]1O (some centres unmarked) [Compound 10]	16.25	972.99
6950 ± 100	7010 ± 148	225 ± 36	35.9 ± 7.78	6220 ± 1350	6290 ± 1360	202 ± 27.6	29100	3.99	73	OC[C@H]1OC(c2ccc(Cl)c(Cc3ccc(C4CCC5(CCC5)CC4)cc3)c2)[C@H](O)[C@@H](O)[C@@H]1O (some centres unmarked) [Compound 13]		
